The source of these data is PMC9606943, “Synthesis and Chemopreventive Potential of 5-FU/Genistein Hybrids on Colorectal Cancer Cells” (Pharmaceuticals, 2022).

Data set [1] deals with SW620 cells. The data set can be described thus: Cell cycle distribution (PI, flow cytometry), SW620. The note with it: 48 h, IC50 concentration, versus DMSO control. The format is cell-based, human. On the procedure: (§1) Cell cycle analysis was evaluated by flow cytometry using propidium iodide (PI). This experiment was carried out as previously described by Nicoletti et al. (1991). Then, 48 h after treatment with the IC50 value of the hybrids 4a, 4g and DMSO (1%) as a vehicle control, cells were collected by scraping and centrifugation, resuspending the cell pellet in a versene buffer. Thereafter, cells were fixed with 1.8 mL cold ethanol (70%) at 4 °C overnight. Alcohol was removed by subsequent washing twice with versene buffer. The final pellet was resuspended in 300 µL of PBS with 0.25 mg/mL RNAse (Type I-A, Sigma-Aldrich, Germany) and 0.1 mg/mL PI and incubated for 30 min in the dark at room temperature. FACS Canto II flow cytometer (BD Biosciences, USA) was used to read the PI fluorescence of 10,000 events. The analysis of data was performed with the software FlowJo 7.6.2 (Ashland, OR, USA).
(In general: Flow cytometry measures light scatter and fluorescence of single cells or particles in a stream.)

The test system of a further data set is CHO-K1. Description: Sulforhodamine B cytotoxicity assay, CHO-K1. The class given is cell-based, chinese hamster. Conditions: 48 h, mean ± SE, non-malignant cells. The protocol:
(§2) Two colon cancer cells (SW480 and SW620) and non-malignant cell lines (human keratinocytes, HaCaT; chinese hamster ovary, CHO-K1) were obtained from The European Collection of Authenticated Cell Cultures (ECACC, England). For biological evaluations, cells were cultured in Dulbecco’s Modified Eagle Medium, supplemented with 10% heat-inactivated (56 °C) horse serum, 1% penicillin/streptomycin and 1% non-essential amino acids (Gibco Invitrogen, Carlsbad, CA, USA). During the treatments, the serum was reduced to 3%, and the medium was supplemented with insulin ([…]) transferrin ([…]) and selenium (5 ng/mL) (ITS-defined medium; Gibco, Invitrogen, Carlsbad, USA). To avoid Mycoplasma spp. contamination, cell cultures were regularly tested by polymerase chain reaction.
(§3) Briefly, cells were seeded at 20,000 cells/well (for cytotoxicity assay) and 2500 cells/well (for the antiproliferative test) in 96-well tissue culture plates, incubating at 37 °C in a humidified atmosphere with 5% CO2. After the adaptation time (24 h), cells were treated with increasing concentrations of the hybrid molecules or DMSO (1%). At the end of each treatment, cells were fixed with trichloroacetic acid (50% v/v; MERCK) for one hour at 4 °C. Subsequently, cell proteins were stained with SRB (0.4% w/v; Sigma-Aldrich, United States) and washed with acetic acid (1%). After drying at room temperature, Tris-base (10 mM) was added to solubilize protein bound stain. Absorbance was read in a microplate reader (Mindray MR-96A) at 492 nm. All experiments were performed at least in duplicate.
For orientation: The SRB assay estimates cell density from bound dye.

Data set [2] concerns SW620. Description: Sulforhodamine B cytotoxicity assay, SW620. The format is cell-based, human. The note with it: 48 h; for IC50: mean ± SE. On the procedure: as §2, §3
The subject of data set [3] is SW620. Description: Antiproliferative activity (sulforhodamine B), SW620. The format is cell-based, human. Conditions: dose- and time-dependent, from day 2 above 12.5 µM, from day 4 at 6.25 µM. On the procedure:
as §3

The subject of a further data set is HaCaT. Description: Sulforhodamine B cytotoxicity assay, HaCaT. The format is cell-based, human. Conditions: 48 h, mean ± SE, non-malignant cells. On the procedure:
as §2, §3

The test system of data set [4] is SW480. The data set can be described thus: Sulforhodamine B cytotoxicity assay, SW480. The class given is cell-based, human. Conditions: 48 h; for IC50: mean ± SE. The protocol:
as §2, §3

Data set [5] has as its system SW620 cells.
Method: (§6) SW480 and SW620 cells were treated for 48 h and further collected by scraping. After centrifugation, the cell pellet was resuspended in Annexin V/FITC–PI and incubated in darkness for 20 min. Data were obtained through flow cytometry and analyzed with FlowJo 7.6.2 (Ashland, OR, USA). […] Cells with positive staining for PI were considered dead cells, late apoptotic cells, necroptotic cells or secondary necrotic cells. All assays were repeated twice [56].
Data set [6] relates to SW620 cells. Description: Cell death induction (Annexin V/FITC and PI), SW620. Conditions: 48 h.
Method: as §6
For data set [7], the system named is SW620 cells. The data set can be described thus: Mitochondrial membrane potential and plasma membrane integrity (DiOC6/PI), SW620. The format is cell-based, human. Conditions: 48 h, IC50 concentration. The protocol:
(§4) The fluorescent dyes DiOC6 (3,3′-dihexyloxacarbocyanine iodide, Thermo Fisher Scientific, Waltham, MA, USA) and propidium iodide (PI) were used to evaluate possible changes in mitochondrial membrane potential induced by the hybrid molecules. Then, 2.5 × 10^5 cells/well were seeded in 6-well tissue culture plates and allowed to grow for 24 h. Then, these were treated with hybrids 4a and 4g (with the IC50 value for each compound). Cells were harvested by scrapping 48 h after treatment, stained with DiOC6 and propidium iodide (PI) at room temperature for 30 min in darkness. Flow cytometric analysis of 10,000 events was carried out to quantify cells with mitochondrial depolarization, excitation at 488 nm and detection of the emission with the green (530/15 nm) and the red (610/20 nm) filters.

The subject of the next data set is Hep-G2. The note with it: cited from earlier work.
Another data set concerns RD. Conditions: cited from earlier work.
The subject of the next data set is FL. Conditions: cited from earlier work.
For a further data set, the system named is normal VERO cells. Conditions: cited from earlier work.
The next data set deals with LU-1. The note with it: cited from earlier work.
The subject of a further data set is caspase-3. Description: Apoptotic biomarker ELISA, caspase-3 in SW620 cells. The format is cell-based, human. The note with it: 48 h, IC50 concentration, versus DMSO control. From the text:
(§5) Afterwards, cells were scraped and lysed with Cell Lysis Buffer (1X, Ref. #9803). The supernatant was used for the determination of apoptotic biomarkers after the treatment with the hybrid molecules. Enzyme-linked immunosorbent assay (ELISA) kits were provided by Elabscience Biotechnology Co., (Wuhan, Hubei, China) (caspase-8) and Cell-Signaling Technology (Danvers, MA, USA) (caspase-3 and p53), following the manufacturer’s instructions.

The test system of another data set is caspase 8. Description: Apoptotic biomarker ELISA, caspase 8 in SW620 cells. The class given is cell-based, human. The note with it: 48 h, IC50 concentration, versus DMSO control.
From the text: as §5

For data set [8], the system named is SW480. The data set can be described thus: Antiproliferative activity (sulforhodamine B), SW480. The class given is cell-based, human. The note with it: dose- and time-dependent, from day 2 above 12.5 µM, from day 4 at 6.25 µM. The protocol: as §3
The subject of data set [9] is SW480 cells. The data set can be described thus: Cell death induction (Annexin V/FITC and PI), SW480. The format is cell-based, human. Conditions: 48 h. An excerpt: All assays were repeated twice.
Data set [10] relates to tumor suppressor protein p53. Description: Apoptotic biomarker ELISA, p53 in SW620 cells. Conditions: 48 h, IC50 concentration, versus DMSO control. The format is cell-based, human.
From the text: as §5
Background: ELISA stands for enzyme-linked immunosorbent assay.

Data set [11] concerns SW480 cells. The data set can be described thus: Mitochondrial membrane potential and plasma membrane integrity (DiOC6/PI), SW480. The class given is cell-based, human. The note with it: 48 h, IC50 concentration. The protocol:
as §4

The subject of data set [12] is SW480 cells. The data set can be described thus: Cell cycle distribution (PI, flow cytometry), SW480. The format is cell-based, human. Conditions: 48 h, IC50 concentration. The protocol: as §1
Data set [13] relates to SW480 cells. Further details: method as in earlier work. Conditions: 48 h post-treatment with 300 µM; cited from earlier work.
A further data set deals with 21PT. On the set-up: method as in PMID 21389782. Conditions: ER-positive breast cancer cell line; cited from earlier work.
Another data set concerns MCF-7. Further details: method as in PMID 21389782. Conditions: ER-positive breast cancer cell line; cited from earlier work.
The next data set deals with T47D. On the set-up: method as in PMID 21389782. The note with it: ER-positive breast cancer cell line; cited from earlier work.

Usually IC50 stands for the concentration at which inhibition is half-maximal. In the case of “5-fluoro-1-((1-(3-((5-hydroxy-3-(4-hydroxyphenyl)-4-oxo-4H-chromen-7-yl)oxy)nonyl)-1H-1,2,3-triazol-4-yl)methyl)pyrimidine-2,4(1H,3H)-dione [4g]”, the “Effect on cell cycle distribution” value with SW620 cells [1] is on record as “important decrease in the population of cells in S-phase with a slight increase in G0/G1”. For the same compound, the IC50 with CHO-K1 is greater than 100 µM; in the data set on SW620 [2], 36.8 ± 0.71 µM; in the data set on HaCaT, greater than 100 µM; in the data set on SW480 [4], greater than 100 µM. For the same compound, the “Selectivity Index (SI) CHO-K1/620” value in the data set on SW620 [2] was greater than 2.71. Moreover, in the data set with SW620 [2], the “Selectivity Index (SI) HaCaT/SW620” value is given as greater than 2.71. Further, in the data set with SW620 [3], the “Antiproliferative activity (cell viability)” value is reported as “significant decrease in the percentages of cell viability”. Moreover, the “Q3 (viable cells per legend)” value with SW620 cells [5] is 0,00%. Also, the “Plasma membrane integrity / cell death” value in the data set on SW620 cells [6] was “caused a loss in membrane integrity”. Also, in the data set on SW620 cells [7], the “Change in mitochondrial membrane potential” value is “do not induce significant changes in mitochondrial membrane potential”.

On to `CC(C)c1ccc(/C=C/C(=O)c2cc(Cn3cc(F)c(=O)[nH]c3=O)ccc2O)cc1` [B], for which the IC50 in the data set with Hep-G2 is 4.68 µM; with RD, 10.8 µM; with FL, 8.17 µM; in the data set with normal VERO cells, 15 µM; in the data set with LU-1, 11.9 µM.

Turning to `O=c1[nH]c(=O)n(Cc2cn(CCOc3cc(O)c4c(=O)c(-c5ccc(O)cc5)coc4c3)nn2)cc1F` [4a, 5-fluoro-1-((1-(3-((5-hydroxy-3-(4-hydroxyphenyl)-4-oxo-4H-chromen-7-yl)oxy)ethyl)-1H-1,2,3-triazol-4-yl)methyl)pyrimidine-2,4(1H,3H)-dione], the “Protein levels of caspase-3” value in the data set with caspase-3 is given as “significant increase in the active form of caspase-3”. In the data set on caspase 8, the “Protein levels of caspase 8” value was “significant increase in the levels of caspase 8”. For the same compound, the “Effect on cell cycle distribution” value in the data set with SW620 cells [1] is “important decrease in the population of cells in S-phase with a slight increase in G0/G1”; in the data set on SW480 cells [12] (versus DMSO control), “important decrease in the population of G0/G1 after treatment with hybrid 4a, with a consequent increase in S-phase and G2/M”. Also, the IC50 with CHO-K1 (Cricetulus griseus, CHO-K1) was 71.1 ± 10.5 µM; in the data set on SW620 [2] (Homo sapiens, SW-620), 50.6 ± 1.33 µM; in the data set with HaCaT (Homo sapiens, HaCaT) it was 64.6 ± 1.07 µM; with SW480 [4] (Homo sapiens, SW480), 62.7 ± 7.26 µM. The “Antiproliferative activity (cell viability)” value in the data set with SW480 [8] and with SW620 [3] was “significant decrease in the percentages of cell viability” each time. Moreover, the “Selectivity Index (SI) CHO-K1/620” value with SW620 [2] turned out to be 1.41. Also, in the data set on SW620 [2], the “Selectivity Index (SI) HaCaT/SW620” value is 1.28. Further, the “Plasma membrane integrity / cell death” value in the data set with SW480 cells [9] and with SW620 cells [6] was “caused a loss in membrane integrity” in each case. Besides, the “Selectivity Index (SI) CHO-K1/SW480” value in the data set on SW480 [4] was 1.13. Moreover, in the data set with SW480 [4], the “Selectivity Index (SI) HaCaT/SW480” value was found to be 1.03. Also, the “Protein levels of tumor suppressor protein Tp53” value in [10] was “important changes in the levels of the tumor suppressor protein Tp53”. Moreover, the “Change in mitochondrial membrane potential” value in the data set with SW480 cells [11] and in the data set with SW620 cells [7] was “do not induce significant changes in mitochondrial membrane potential” throughout. Moreover, the “Cell cycle distribution G0/G1” value in the data set on SW480 cells [12] (representative histogram) stood at 46.4%. Moreover, the “Cell cycle distribution G2/M” value with SW480 cells [12] (representative histogram) was 15.4%. Further, in the data set with SW480 cells [12] (representative histogram), the “Cell cycle distribution S-phase” value amounted to 36.4%. In the data set on SW480 cells [12] (representative histogram), the “Cell cycle distribution Sub G0/G1” value came out at 1.8%.

As for `CC(=O)Oc1ccccc1C(=O)OCCn1cc(COc2cc(O)c3c(=O)c(-c4ccc(O)cc4)coc3c2)nn1` [F], the “reduction in cell viability” value in the data set on SW480 cells [13] is 40.49%.

In the case of `O=c1c(-c2ccc(OCCn3cc(-c4ccccc4)nn3)cc2)coc2cc(OCCn3cc(-c4ccccc4)nn3)cc(O)c12` [E], the results for the IC50 with 21PT, in the data set on MCF-7 and in the data set with T47D were 0.9 µM, 0.8 µM and 0.9 µM, respectively.
